Where no end group is shown, it is not given here.
Test system: Human Adipose-Derived Mesenchymal Stem Cells (AD-MSC)
Experiment: Confirmation of cytotoxicity (CCK-8 activity test and SRB staining)
Format: cell-based
Conditions: about 1 to 200 µg/ml, 7 days of culture; for cytotoxicity: CCK-8; for change in cell morphology: SRB staining, microscope
Experimental: Human Adipose-Derived Mesenchymal Stem Cells (AD-MSC) were treated with Peptide-1 or Peptide-2 to determine whether they were cytotoxic.
Specifically, AD-MSCs were seeded in 96-well plates at a concentration of about 1.5 x 10^3 cells/well and cultured in DMEM medium (about 10 % FBS + DMEM medium) for about 24 hours. […] After 7 days of culture, about 1/10 of the culture medium was treated with a CCK-8 (Dojindo, CCK-8 kit) solution and cultured for about 2 hours. After incubation, the culture medium was sampled and the absorbance was measured at a wavelength of about 450 nm using a microplate reader. After measuring the absorbance, the medium in the culture medium in the 96-well plate was removed, and about 60 µl of 3.7 % formalin was added to the 96-well plate to fix the cells for about 1 minute. After cell fixation, the formalin was removed, and about 70 ul of SRB staining solution (about 0.2 g of Sulforhodamine B sodium salt (sigma, S9012) dissolved in about 100 ml of double-distilled water) was added to the fixed cells, and the cells were stained by culturing overnight at room temperature in a lightblocking condition. After cell staining, the cells were washed with about 1 % acetic acid and dried. The dried cells were observed under a microscope. As control groups, an experimental group (CON) that was not treated with the above peptide and an experimental group (CM) treated with a solution containing about 100 nM dexamethasone, about 50 µM ascorbic acid, about 40 µM proline, about 10 ng/ml TGFβ1, and 1X ITS instead of the above peptide were used.

Row | Substance | cytotoxicity | change in cell morphology
1 | HHEQF [Peptide-2, HHEQF] | no cytotoxicity was caused | no change in cell morphology occurred at all concentrations
2 | STGALSTSFTEE [Peptide-1, STGALSTSFTEE] | no cytotoxicity was caused | no change in cell morphology occurred at all concentrations

— EP4631969A1, “PEPTIDE FOR CARTILAGE REGENERATION, AND USES THEREOF” (Caregen Co., Ltd., priority 2022, dated 2024)
